Results published in patent US20080227638A1, “Use of abscisic acid to enhance growth control” (priority 2007, published 2008).

Tests used:
Type in all cases: in vivo
Kentucky bluegrass = experiment: Greenhouse Kentucky bluegrass height and quality, ABA and trinexapac-ethyl (Example 1); conditions: for Quality: visual 0-9 scale
Description: Greenhouse studies were conducted at the Research Farm of Valent BioSciences Corporation (Long Grove, Ill.). Grasses were grown in pots (18 cm in diameter and 18 cm in height) filled with Promix BX (available from Premier Horticulture Inc. Quakertown, Pa.). Grass was irrigated daily by an overhead irrigation system. The irrigation system was set up with multiple Tornado Mist Spray Heads (10 GPH at 40 PSI-Wetted diameter, NDS/Raindrip, Woodland Hills, Calif.). Spray heads were 1-meter apart from each other and 75 cm above grass canopy. Grass was cut with a scissor at 2.5 cm height and fertilizer (1 g/L all purpose fertilizer 20-20-20, available from The Scotts Company, Marysville, Ohio) was applied once per week.
(§1) Chemical solutions were prepared with distilled water. Tween 20 (0.05% v/v) was used as an, adjuvant. Both trinexapac-ethyl (commercial product Primo Maxx, 11.3% active ingredient) and paclobutrazol (commercial product Trimmit 2SC, 22.3% active ingredient) were purchased from Syngenta Crop Protection Inc. (Greensboro, N.C.). Uniconazole-P (commercial product Sumagic, 0.55% active ingredient) was obtained from Valent U.S.A. Corporation (Walnut Creek, Calif.).
(§2) When treated with paclobutrazol or uniconazole-P, turfgrass received irrigation within 24 hours after application to flush chemicals to the root zone. After treatment, turfgrasses were arranged in a randomized complete block experimental design. Turfgrass quality, turfgrass height or clip fresh weight was measured on assigned dates. Turfgrass quality was visually rated on a 0-9 scale based on the color, uniformity and density of the grass with 0 as the worst and 9 as the best. Turfgrass height was measured as the distance between canopy surface and soil. Clips were collected from each plot; all plots were cut to a uniform height.
(§3) All experiments were randomized complete block experimental design. Data were analyzed by analysis of variance. Duncan's new multiple range tests at α=0.05 were used for mean separations.
Kentucky bluegrass sod (unknown variety) was purchased from Deak sod farms, Inc. (Union Grove, Wis.). Grass was grown in the greenhouse in pots (n=6 pots per treatment) for establishment before treatment. […] Tween 20 (0.05% w/v) was included as an adjuvant. Turfgrass canopy was not cut during the experimental period.

creeping bentgrass = experiment: Golf course green creeping bentgrass height, ABA and trinexapac-ethyl (Example 4)
Description: (§4) Field studies were conducted at the nursery green or the practice green at Countryside golf course (Mundelein, Ill.). Both greens were sand based and growing Penncross creeping bentgrass. Grass was managed with typical Illinois golf course management practices.
as §1, §2, §3
(§5) Tween 20 (0.05% w/v) was included as an adjuvant.

creeping bentgrass green = experiment: Soil moisture of creeping bentgrass green, ABA and trinexapac-ethyl (Example 8); conditions: 25 ppm trinexapac-ethyl
Description: as §4, §1, §2, §3, §5

[1] = test system: tomato (variety: Rutgers); experiment: Tomato leaf transpiration, porometer (Example 9)
Text: (§6) Tomato (variety: Rutgers) seeds were sown in 18-cell flat filled with Promix PGX (available from Premier Horticulture Inc. Quakertown, Pa.) and grown for 3 weeks to allow for germination and initial growth. Plants were then transplanted into pots (18 cm in diameter and 18 cm in height), filled with Promix BX (available from Premier Horticulture Inc. Quakertown, Pa.), and grown for one week before the chemical treatment. Plants received daily irrigation and weekly fertilizer (1 g/L all purpose fertilizer 20-20-20, available from The Scotts Company, Marysville, Ohio).
(§7) During the chemical treatment, a 15 mL (2.5 mL/plant) solution was foliar sprayed on the tomato canopy. Leaf transpiration rates were measured using a LI-1600 Steady State Porometer (LI-Cor, Lincoln, Nebr.) at 1, 2, 3, 4, 7, 10 and 15 days after treatment. Leaf transpiration rate was normalized to the percentage of control plant to minimize the experimental errors caused by environmental factors. Plant height was measured at 0, 2, 4, 7, 10 and 15 days after treatment. Growth rate was calculated based on the changes of plant height in certain intervals. The plants were harvested and the leaf number was counted at 15 days after treatment.

[2] = test system: tomato (variety: Rutgers); experiment: Tomato plant height, growth rate and leaf number (Example 9); conditions: for Leaf number: 15 days after treatment
Text: as §6, §7

[3] = 40 ppm trinexapac-ethyl, 23 days after treatment
[4] = 80 ppm trinexapac-ethyl, 23 days after treatment
[5] = 160 ppm trinexapac-ethyl, 23 days after treatment
[6] = 250 ppm trinexapac-ethyl, day 2 after treatment
[7] = 250 ppm trinexapac-ethyl, day 4 after treatment
[8] = 250 ppm trinexapac-ethyl, day 7 after treatment
[9] = 250 ppm trinexapac-ethyl, day 10 after treatment
[10] = 250 ppm trinexapac-ethyl, day 15 after treatment
[11] = 500 ppm trinexapac-ethyl, day 2 after treatment
[12] = 500 ppm trinexapac-ethyl, day 4 after treatment
[13] = 500 ppm trinexapac-ethyl, day 7 after treatment
[14] = 500 ppm trinexapac-ethyl, day 10 after treatment
[15] = 500 ppm trinexapac-ethyl, day 15 after treatment
[16] = 1000 ppm trinexapac-ethyl, day 2 after treatment
[17] = 1000 ppm trinexapac-ethyl, day 4 after treatment
[18] = 1000 ppm trinexapac-ethyl, day 7 after treatment
[19] = 1000 ppm trinexapac-ethyl, day 10 after treatment
[20] = 1000 ppm trinexapac-ethyl, day 15 after treatment
[21] = 2000 ppm trinexapac-ethyl, day 2 after treatment
[22] = 2000 ppm trinexapac-ethyl, day 4 after treatment
[23] = 2000 ppm trinexapac-ethyl, day 7 after treatment
[24] = 2000 ppm trinexapac-ethyl, day 10 after treatment
[25] = 2000 ppm trinexapac-ethyl, day 15 after treatment

## CCOC(=O)C1CC(=O)C(=C(O)C2CC2)C(=O)C1 (stereo not shown) [trinexapac-ethyl]
Kentucky bluegrass; 40 ppm trinexapac-ethyl, 7 days after treatment
  Turfgrass height: 9.5 cm
Kentucky bluegrass; [3]
  Turfgrass height: 18.0 cm
  Quality: 7.8
Kentucky bluegrass; 80 ppm trinexapac-ethyl, 7 days after treatment
  Turfgrass height: 7.4 cm
Kentucky bluegrass; [4]
  Turfgrass height: 17.3 cm
  Quality: 8.0
Kentucky bluegrass; 160 ppm trinexapac-ethyl, 7 days after treatment
  Turfgrass height: 6.1 cm
Kentucky bluegrass; [5]
  Turfgrass height: 13.3 cm
  Quality: 7.0
Creeping bentgrass; 12.5 ppm trinexapac-ethyl, 7 days after treatment
  Turfgrass height: 6.0 cm
Creeping bentgrass; 12.5 ppm trinexapac-ethyl, 14 days after treatment
  Turfgrass height: 8.5 cm
Creeping bentgrass; 50 ppm trinexapac-ethyl, 7 days after treatment
  Turfgrass height: 4.3 cm
Creeping bentgrass; 50 ppm trinexapac-ethyl, 14 days after treatment
  Turfgrass height: 5.5 cm
Creeping bentgrass green; 2 days after treatment
  Soil moisture: 11.2%
Creeping bentgrass green; 7 days after treatment
  Soil moisture: 12.7%
[1]; 250 ppm trinexapac-ethyl, day 1 after treatment
  Transpiration: 91 % of control
[1]; [6]
  Transpiration: 99 % of control
[1]; 250 ppm trinexapac-ethyl, day 3 after treatment
  Transpiration: 91 % of control
[1]; [7]
  Transpiration: 95 % of control
[1]; [8]
  Transpiration: 100 % of control
[1]; [9]
  Transpiration: 98 % of control
[1]; [10]
  Transpiration: 98 % of control
[1]; 500 ppm trinexapac-ethyl, day 1 after treatment
  Transpiration: 91 % of control
[1]; [11]
  Transpiration: 95 % of control
[1]; 500 ppm trinexapac-ethyl, day 3 after treatment
  Transpiration: 89 % of control
[1]; [12]
  Transpiration: 96 % of control
[1]; [13]
  Transpiration: 100 % of control
[1]; [14]
  Transpiration: 99 % of control
[1]; [15]
  Transpiration: 100 % of control
[1]; 1000 ppm trinexapac-ethyl, day 1 after treatment
  Transpiration: 92 % of control
[1]; [16]
  Transpiration: 96 % of control
[1]; 1000 ppm trinexapac-ethyl, day 3 after treatment
  Transpiration: 91 % of control
[1]; [17]
  Transpiration: 98 % of control
[1]; [18]
  Transpiration: 100 % of control
[1]; [19]
  Transpiration: 103 % of control
[1]; [20]
  Transpiration: 99 % of control
[1]; 2000 ppm trinexapac-ethyl, day 1 after treatment
  Transpiration: 95 % of control
[1]; [21]
  Transpiration: 94 % of control
[1]; 2000 ppm trinexapac-ethyl, day 3 after treatment
  Transpiration: 90 % of control
[1]; [22]
  Transpiration: 98 % of control
[1]; [23]
  Transpiration: 97 % of control
[1]; [24]
  Transpiration: 99 % of control
[1]; [25]
  Transpiration: 98 % of control
[2]; 250 ppm trinexapac-ethyl
  Leaf number: 12.0
[2]; 250 ppm trinexapac-ethyl, day 0 after treatment
  Plant height: 10.3 cm
[2]; [6]
  Growth rate: 1.7 cm/day
  Plant height: 13.6 cm
[2]; [7]
  Growth rate: 1.5 cm/day
  Plant height: 16.4 cm
[2]; [8]
  Growth rate: 2.6 cm/day
  Plant height: 28.7 cm
[2]; [9]
  Growth rate: 2.2 cm/day
  Plant height: 32.3 cm
[2]; [10]
  Growth rate: 2.7 cm/day
  Plant height: 50.6 cm
[2]; 500 ppm trinexapac-ethyl
  Leaf number: 11.7
[2]; 500 ppm trinexapac-ethyl, day 0 after treatment
  Plant height: 9.8 cm
[2]; [11]
  Growth rate: 1.7 cm/day
  Plant height: 13.1 cm
[2]; [12]
  Growth rate: 1.5 cm/day
  Plant height: 15.9 cm
[2]; [13]
  Growth rate: 2.6 cm/day
  Plant height: 28.3 cm
[2]; [14]
  Growth rate: 2.2 cm/day
  Plant height: 31.2 cm
[2]; [15]
  Growth rate: 2.6 cm/day
  Plant height: 50.7 cm
[2]; 1000 ppm trinexapac-ethyl
  Leaf number: 11.7
[2]; 1000 ppm trinexapac-ethyl, day 0 after treatment
  Plant height: 10.0 cm
[2]; [16]
  Growth rate: 1.2 cm/day
  Plant height: 12.3 cm
[2]; [17]
  Growth rate: 1.4 cm/day
  Plant height: 15.4 cm
[2]; [18]
  Growth rate: 2.4 cm/day
  Plant height: 26.7 cm
[2]; [19]
  Growth rate: 2.1 cm/day
  Plant height: 31.3 cm
[2]; [20]
  Growth rate: 2.8 cm/day
  Plant height: 52.7 cm
[2]; 2000 ppm trinexapac-ethyl
  Leaf number: 11.5
[2]; 2000 ppm trinexapac-ethyl, day 0 after treatment
  Plant height: 9.9 cm
[2]; [21]
  Growth rate: 1.2 cm/day
  Plant height: 12.2 cm
[2]; [22]
  Growth rate: 1.5 cm/day
  Plant height: 15.8 cm
[2]; [23]
  Growth rate: 2.0 cm/day
  Plant height: 23.9 cm
[2]; [24]
  Growth rate: 2.0 cm/day
  Plant height: 29.3 cm
[2]; [25]
  Growth rate: 2.7 cm/day
  Plant height: 50.6 cm
